Read-outs that look alike come from different tables or passages of the source.

Data set [1] concerns PANC-1 cell line. The data set can be described thus: Cytotoxicity in PANC-1 cell line. It is filed as cell-based, human.
The test system of data set [2] is PDAC-2 cells. The experiment in a line: Apoptosis assay (annexinV-FITC), PDAC-2. It is filed as cell-based, human. The procedure:
(§1) Previous studies reported that the modulation of σ2 receptor activity contributes to the initiation of the apoptotic process. Therefore, we evaluated the effect of FA4 on the induction of apoptosis in the PDAC primary cultures. To this aim, we measured the externalization of the plasma membrane phosphatidylserine, a reliable marker of cell apoptosis, which was quantified by the measurement of the fluorescence of annexin-V by spectrophotometric assay and microscopy. After 24 h of treatment with 10 μM FA4, a significant increase in the portion of apoptotic cells was observed compared to untreated control cells. The highest apoptotic index was measured in the PDAC-2 cells (17.6 ± 3.6, compared to 15.5 ± 4.9 in the PDAC-1 cells).
(§2) Cells were seeded in 96-well plates (5 × 10^3 cells/well), and after 24 h, the cells were fixed with 4% paraformaldehyde in PBS for 30 min, then washed twice with PBS and stained with annexinV-FITC in binding buffer (10 mM HEPES/NaOH pH 7.4, 140 mM NaCl, and 2.5 mM CaCl2) for 10 min in the dark at room temperature. Lastly, cells were washed with the assay binding buffer solution, and fluorescence was measured by using a multimode plate reader with excitation and emission filters at 485 nm and 535 nm, respectively, to determine the apoptotic index. […]

Data set [3] deals with PDAC-2 cells. The experiment in a line: Scratch wound-healing migration assay, PDAC-2. It is filed as cell-based, human. The following applies: PDAC-2, FA4 10 µM, 24 h. On the procedure:
(§3) Cancer cell migration is a key factor contributing to the aggressiveness of PDAC. It is therefore important to find new compounds that can counteract or stop this process. To evaluate the effect of FA4 on cell migratory properties, a migration assay was performed by incubating cells for 24 h with FA4.
(§4) Cells were seeded into 96-well plates 72 h before the assay at a density of 5 × 10^4 /well and allowed to attach and to become confluent. Subsequently, a scratch was performed in every well with a 96-pin scratcher, allowing the formation of uniform scratches. Immediately after this passage, cells were cultured for 24 h in complete medium with the drug of interest for experimental wells or without any drug for the control wells. Pictures were taken with an optical microscope at different time points (0, 6, and 24 h) and analyzed with the Scratch Assay 6.2 software (Digital Cell Imaging Labs, Keerbergen, Belgium). The migration assay was performed in technical and biological triplicates, as reported previously.

Data set [4] concerns normal fibroblast Hs27 cells. The experiment in a line: Sulforhodamine B (SRB) assay, Hs27. It is filed as cell-based, human. The following applies: Hs27 cells vs PDAC tumor cells. In general terms: In SRB staining, fixed cells bind dye roughly in proportion to their protein.
Experimental: (§9) Cells were seeded in 96-well flat-bottom plates at a density of 3000/well, using both a control plate and an experimental plate. After 24 h, the control plate was fixed with cold 50% trichloroacetic acid, and the incubation with the compound of interest was performed in the experimental plate. After 72 h of incubation, the experimental plate was also fixed. Subsequently, both plates were washed and stained with the SRB solution, and after vigorous washing and drying, the bound dye was extracted from the cells with an alkaline solution. The absorption of SRB was measured spectrophotometrically at a wavelength of 490 nm and 540 nm. The intensity of the signal is proportional to the number of living cells and, therefore, a measure of their proliferation. Thus, cell growth inhibition was calculated as the percentage versus vehicle-treated cells (“negative control”) OD (corrected for OD of the control plate before drug addiction). Finally, the half maximal inhibitory concentration (IC50) was calculated by nonlinear least squares curve fitting (GraphPad Prism 7, Intuitive Software for Science, San Diego, CA, USA), as described previously [33]. The SRB assay was performed in technical and biological triplicates.
Data set [5] is described as follows: Sulforhodamine B (SRB) assay, Hs27. It is filed as cell-based, human. The following applies: human, normal skin fibroblast Hs27 cells; Hs27 nontransformed cells, SRB, 72 h; read-out: Cytotoxicity IC50 ± SD.
Experimental: as §9
Data set [6] has as its system PDAC-1 cells. The experiment in a line: cells. The settings on record: Homo sapiens, 72 h, read-out: Cytotoxicity IC50 ± SD.
Experimental: (§10) Human pancreatic adenocarcinoma primary cultures (PDAC1 and PDAC2) were cultured in RPMI + 10 % New Born Calf Serum + 1% Penicillin/ Streptomycin and maintained in standard conditions for <20 passages. Cells were routinely tested for Mycoplasma spp. and were free of contamination.
(§11) Cells were seeded in 96-well flat-bottom plates at a density of 3000/well, using both a control plate and an experimental plate. After 24 h, the control plate was fixed with cold 50% trichloroacetic acid, and the incubation with the compound of interest was performed in the experimental plate. After 72 h of incubation, the experimental plate was also fixed. Subsequently, both plates were washed and stained with the SRB solution, and after vigorous washing and drying, the bound dye was extracted from the cells with an alkaline solution. The absorption of SRB was measured spectrophotometrically at a wavelength of 490 nm and 540 nm. […] Thus, cell growth inhibition was calculated as the percentage versus vehicle-treated cells (“negative control”) OD (corrected for OD of the control plate before drug addiction). Finally, the half maximal inhibitory concentration (IC50) was calculated by nonlinear least squares curve fitting (GraphPad Prism 7, Intuitive Software for Science, San Diego, CA, USA), as described previously [33]. […]
The test system of data set [7] is PDAC-2 cells. The experiment in a line: cells. The settings on record: Homo sapiens, PDAC-2, 72 h, read-out: Cytotoxicity IC50 ± SD.
Experimental: as §10, §11
Data set [8] has as its system PANC-1 cell line. More on the design: method as in PMID 34586588. The settings on record: read-out: Cytotoxicity IC50 ± SD PANC-1; cited from earlier work.
Data set [9] has as its system PDAC-1 cells. The experiment in a line: Scratch wound-healing migration assay, PDAC-1. The settings on record: PDAC-1, FA4 10 µM, 24 h. It is filed as cell-based, human. On the procedure:
as §3, §4

Another data set has as its system normal HPDE cells. The experiment in a line: Sulforhodamine B (SRB) assay, HPDE. Type of data set: cell-based, human. The following applies: HPDE cells vs PDAC tumor cells.
Data set [10] in a line: Sulforhodamine B (SRB) assay, HPDE. It is filed as cell-based, human. The settings on record: human; HPDE nontransformed cells, SRB, 72 h; read-out: Cytotoxicity IC50 ± SD.
Experimental: as §9
The subject of another data set is PDAC xenografts. Further details: method as in PMID 34586588. The following applies: cited from earlier work.
In data set [11] the test system is pancreatic ductal adenocarcinoma (PDAC) primary cell cultures. The experiment in a line: Antiproliferative activity on PDAC primary cell cultures (both cultures together). Type of data set: cell-based. The following applies: Homo sapiens; range over PDAC primary cell cultures; read-out: half maximal inhibitory concentration (IC50). The source says:
A new sigma-2 (σ2) receptor ligand (FA4) was efficiently synthesized and evaluated for cytotoxic, proapoptotic, and antimigratory activity on pancreatic ductal adenocarcinoma (PDAC) primary cell cultures, which restrained the aggressive and chemoresistant behavior of PDAC. […] The cytotoxic activity was associated with induction of apoptosis, resulting in apoptotic indexes higher than those observed after exposure to a clinically relevant concentration of the gemcitabine, the first-line drug used against PDAC.

In data set [12] the test system is PDAC-1 cells. The experiment in a line: Apoptosis assay (annexinV-FITC), PDAC-1. Type of data set: cell-based, human. On the procedure:
as §1, §2

A further data set addresses T1, σ2 receptor (Rattus norvegicus, UniProt Q5U3Y7).
T1 sequence (Q5U3Y7 1-176): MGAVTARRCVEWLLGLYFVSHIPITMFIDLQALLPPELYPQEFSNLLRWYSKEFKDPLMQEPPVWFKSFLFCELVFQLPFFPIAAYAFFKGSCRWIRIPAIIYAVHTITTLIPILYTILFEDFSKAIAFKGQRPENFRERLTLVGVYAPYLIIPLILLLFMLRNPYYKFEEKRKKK
The data set can be described thus: σ2 receptor radioligand binding assay. The procedure:
(§5) The compounds underwent radioligand binding assays on σ1 and σ2 receptors, according to the previously adopted protocols.
(§6) σ1 and σ2 receptor binding were carried out following Matsumoto et al.. […] All the procedures for the binding assays were described previously by Abate and collaborators.

Data set [13] has as its system breast adenocarcinoma MCF7 cells. The experiment in a line: Cytotoxicity in MCF7 cells. It is filed as cell-based. The following applies: Homo sapiens. The procedure: (§7) On the other hand, the data also confirmed the need for a strategy with a greater impact on pancreatic tumors. From this perspective, the multitarget FA4 appeared to be a promising candidate and was selected to be further investigated in the primary PDAC cell cultures of the present study.
(§8) Previous experiments were performed with human pancreas cancer cell lines PANC-1 (CRL-1469™), MiaPaCa2 (CRL-1420™), BxPC-3 (CRL-1687™), PANC-02.03 (CRL-2553™), AsPC-1 (CRL-1682™), human A549 lung cancer cells (CRM-CCL-185™), human MCF7 adenocarcinoma breast cells (HTB-22™), and human HepG2 hepatocarcinoma cells (HB-8065™), obtained from ATCC. PANC-1, MiaPaCa2, BxPC-3, PANC-02.03, AsPC-1, and MCF7cells were cultured in DMEM with heat inactivated 10% FBS, penicillin ([…]), and streptomycin ([…]). HepG2 cells were cultured in MEM supplemented with 10% (v/v) heat inactivated FPS, 1% (v/v) glutamine, 1% (v/v) penicillin, and streptomycin, 1% (v/v) NEAA. A549 cells were grown in HAM’S F12 supplemented with 10% heat inactivated FBS, 2 mM glutamine, 100 U mL^−1 penicillin, and 100 μg/mL streptomycin. All these cells were kept at 37 °C in a humidified incubator under an atmosphere of 5% CO2 in 75 cm^2 tissue culture flasks (Greiner Bio-One GmbH, Frickenhausen, Germany) and were harvested with trypsin-EDTA in their exponentially growing phase.

The next data set addresses σ1 receptor (Cavia porcellus, UniProt Q60492). The experiment in a line: σ1 receptor radioligand binding assay. The settings on record: mean of n ≥ 3 separate experiments in duplicate, read-out: Ki ± SD σ1. On the procedure: as §5, §6
In data set [14] the test system is lung adenocarcinoma A549 cells. The data set can be described thus: Cytotoxicity in A549 cells. The following applies: Homo sapiens. It is filed as cell-based. The procedure:
as §7, §8

The subject of data set [15] is hepatocarcinoma HepG2 cells. The experiment in a line: Cytotoxicity in HepG2 cells. The settings on record: Homo sapiens. Type of data set: cell-based. On the procedure: as §7, §8
Where [16] appears, read: Homo sapiens, PANC-1, read-out: Cytotoxicity IC50 ± SD PANC-1.

σ1 receptor, sequence (Q60492 whole entry): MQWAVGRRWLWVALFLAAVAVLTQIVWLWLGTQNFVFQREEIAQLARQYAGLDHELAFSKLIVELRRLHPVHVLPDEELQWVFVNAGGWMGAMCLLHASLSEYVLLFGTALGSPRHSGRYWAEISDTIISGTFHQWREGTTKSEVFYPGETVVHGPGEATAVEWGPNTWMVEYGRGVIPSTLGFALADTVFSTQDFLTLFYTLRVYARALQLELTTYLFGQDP
Experimental for normal HPDE cells: as §9

As for `CC(C)=CCN1CC[C@]2(C)c3cc(O)ccc3C[C@H]1[C@H]2C` [(+)-pentazocine], the IC50 with PANC-1 cell line [1] (setting [16]) was more than 50 µM.

In the case of `Cc1ccccc1N=C(N)Nc1ccccc1C` [DTG], the IC50 with PANC-1 cell line [1] (PANC-1 cell line, read-out: Cytotoxicity IC50 ± SD PANC-1) was more than 50 µM.

Turning to `CN(C)C(=S)N/N=C1\C(=O)N(CCCCN2CCC3(CC2)OCc2ccccc23)c2ccccc21` [FA4], the apoptotic index stood at 17.6 ± 3.6 in the data set on PDAC-2 cells [2] (PDAC-2, 10 μM, 24 h, annexinV-FITC fold change compared to control cells) and 15.5 ± 4.9 with PDAC-1 cells [12] (PDAC-1, 10 μM, 24 h, annexinV-FITC fold change compared to control cells). Also, the “percentages of apoptotic cells compared to gemcitabine at 10 μM” value was “significantly higher” in the data set with PDAC-2 cells [2] (PDAC-2, 24 h treatment) and “significantly higher” with PDAC-1 cells [12] (PDAC-1, 24 h treatment). Also, the migration rate result in the data set with PDAC-2 cells [3] and in the data set on PDAC-1 cells [9] was “significantly inhibit the migration rate” throughout. Further, the “selectivity index (SI, IC50 non-tumor cells/IC50 tumor cells)” value in data set [4] turned out to be 7; in the data set with normal HPDE cells, 11. In addition, the values for the IC50 at 72 h in [5] and in data set [10] were 5.55 ± 0.333 µM and 8.07 ± 0.302 µM, respectively. In addition, the IC50 in the data set on PDAC-1 cells [6] is 0.825 ± 0.006 µM; with PDAC-2 cells [7] it was 0.701 ± 0.059 µM; in the data set on PANC-1 cell line [8], 3.01 ± 0.9 µM; in data set [11], 0.701 to 0.825 µM. The “safety in PDAC xenografts” value in the data set on PDAC xenografts is on record as “safe”.

As to `c1ccc2c(c1)COC21CCN(CCCCn2ccc3ccccc32)CC1` [MT8, 1’-(4-(1H-indol-1-yl)butyl)-3H-spiro[isobenzofuran-1,4’-piperidine]], the Ki at σ2 receptor was 0.00043 ± 0.0001 µM; on σ1 receptor, 0.0273 ± 0.0026 µM. Also, in the data set with PANC-1 cell line [1], the “cytotoxic potency relative to FA4” value is reported as “six-fold less potent than FA4”. Moreover, the IC50 in the data set on PANC-1 cell line [1] (setting [16]) stood at 19.1 ± 1.3 µM; in data set [13], 6.02 µM; in data set [14], 4.29 µM; in [15], 3.2 µM.

As to `Fc1ccc(-n2cc(CCCCN3CCC4(CC3)OCc3ccccc34)c3ccccc32)cc1` [Siramesine], in the data set on PANC-1 cell line [1] (Homo sapiens, PANC-1 cell line, read-out: Cytotoxicity IC50 ± SD PANC-1), the IC50 is more than 50 µM.

As usually defined, the Ki is a measure of affinity in units of concentration, obtained from inhibition or displacement.

Source of the values: article PMC8911630, “New Pharmacological Strategies against Pancreatic Adenocarcinoma: The Multifunctional Thiosemicarbazone FA4” (Molecules, 2022).
